Marks after values point to notes of the source that are not given here.
Experiments:
[1] = tested on: U87-MG Human Glioblastoma; experiment: Human tumor xenograft test, U87-MG; format: in vivo, athymic mice
Experimental: (§1) The ability of compounds of this invention to inhibit tumor growth in animals is studied in the athymic mouse xenograft standard pharmacological test. Female nu/nu mice in an outbred albino background are obtained from Charles River Laboratories (Wilmington, Mass.). Animals are injected subcutaneously on the flank with the desired tumor cell suspension. Several days later, mice with tumors of approximately 150 mm^3 are selected from those injected (staged) and randomly distributed into groups of 5-10. The day of staging is called day 0. Compounds of the invention, usually formulated in saline (exceptions are noted in tables), are administered to animals by intravenous injection or oral gavage on various schedules starting on day 0 or 1, as noted in the tables. The control group in each experiment is dosed with vehicle on the same schedule. Tumor size is measured every 3-7 days with calipers in two orthogonal dimensions, and tumor volume is calculated from the formula volume=[(length×width^2)/2].
(§2) Tumor/Control (T/C) is obtained by dividing the mean tumor volume of the treated group by the mean tumor volume of the control group on each measurement day. A treatment dose is defined as active if it produced a statistically significant T/C of 0.50 or less. A p value≦0.05, determined by one-side Student's t-test, is required for statistical significance. A treatment dose is defined as toxic if more than 10% of the animals died from a compound-related toxicity.

COLO 205 cells = experiment: MTS cytotoxicity test with COLO 205 cells; format: cell-based, human; settings: Homo sapiens, COLO 205, 72 h, 3 days
Experimental: The assay, which is sold in kit form by Promega (Madison, Wis.; CellTiter 96 AQueous Non-Radioactive Cell Proliferation Assay), is based on the conversion by viable cells, but not by dead cells, of the tetrazolium salt, MTS (3-(4,5-dimethylthiazol-2-yl)-5-(3-carboxymethoxyphenyl)-2-(4-sulphophenyl)-2H-tetrazolium, inner salt), into a water-soluble colored formazan which is detected by spectrophotometry. Compounds are tested at nine concentrations, in order to determine IC50 values. For the test procedure, cells are harvested by trypsinization (or, in the case of non-adherent cells, by simple resuspension), washed, counted and distributed to wells of 96-well flat-bottom microtiter plates at 1000 cells per well in 200 μL of medium. In addition, one row of wells on a separate plate received cells as above (“time 0” plate). All plates are incubated at 37° in humidified 5% CO2 in air for about 24 hr.
On day 2, compounds for test are diluted and added to wells. Compounds are dissolved in DMSO at 10 mg/mL. For each compound, nine serial 2-fold dilutions are prepared in DMSO. Ten μL of each dilution in DMSO is transferred to 100 μL of medium, mixed well, and then 5 μL of this dilution is transferred in quadruplicate to wells containing cells. The final high concentration of each compound is typically 5 μM. Plates are returned to the incubator for three days. At the time of drug addition to the experimental plates, the MTS assay is run on the “time 0” plate. This produced the “time 0 MTS value” which is related to the number of viable cells per well at the time of drug addition.
After three days of culture with test compounds (day 5 overall), the MTS assay is done on all wells of the experimental plates. The absorbance values of the quadruplicate sample wells are averaged and divided by the average of the “time 0” values. The average of control wells without drug, divided by the average “time 0” value, gave the maximal relative increase in MTS color yield due to cell growth during the final three days of culture. The average of control wells with high drug concentration, divided by the “time 0” value, gave the minimal relative color yield for cells that are completely killed. The nine values for each compound are plotted against concentration, and the concentration that produced a relative color yield half way between the maximum and minimum is taken as the IC50 value.
COLO 205 is a human colon carcinoma cell line that is used for comparative testing of the examples of this invention and several reference compounds. This line is sensitive to paclitaxel and vincristine.

MAP-rich tubulin = experiment: Tubulin polymerization test with MAP-rich tubulin; format: biochemical, bovine; settings: 0.3 μM compound, 20 min, fold enhancement over control
Experimental: Medium is RPMI-1640 with L-glutamine, supplemented with 10% heat-inactivated fetal calf serum, 100 units/ml penicillin, and 100 μg/ml streptomycin (Gibco, Grand Island, N.Y.). Microtubule-associated protein (MAP)-rich tubulin, containing about 70% tubulin and 30% MAPs (#ML113), and highly purified tubulin (>99% pure, #TL238), both from bovine brain, are obtained from Cytoskeleton, Inc., Denver, Colo. PEM buffer (80 mM piperazine-N,N′-bis[2-ethanesulfonic acid], pH 6.9, 1 mM ethylene glycol-bis(β-aminoethyl ether)-N,N,N′,N′-tetraacetic acid, 1 mM magnesium chloride) and guanosine 5′-triphosphate (GTP) are also obtained from Cytoskeleton. [3H]paclitaxel, specific activity 14.7 Ci/mmol, is purchased from Moravek Biochemicals (Brea, Calif.). [^3H]vinblastine, specific activity 9.60 Ci/mmol and MicroSpin G-50 columns are obtained from Amersham Biosciences (Piscataway, N.J.). […] Other reagents are obtained from Sigma (St. Louis, Mo.).
Two variations of this procedure are done, one using MAP-rich tubulin and one using pure tubulin.
MAP-rich tubulin is dissolved in ice-cold PEM buffer containing 1 mM GTP (GPEM buffer) at a concentration of 1.3 mg/mL. The solution is centrifuged at top speed in an Eppendorf model 5415C microcentrifuge (Brinkmann Instruments, Westbury, N.Y.) for 10 min at […] immediately before use. The tubulin solution is added to wells of a ½-area 96-well plate (Costar No. 3696, Corning, Inc., Corning, N.Y.) already containing the compounds of interest. Each compound is tested in duplicate at a final concentration of 0.3 μM in a volume of 110 μL per well. The final DMSO concentration in all wells is 0.3%. Control reactions, which received compound solvent only, are done in quadruplicate. The plate is put in a SpectraMax Plus plate reader (Molecular Devices Corp. Sunnyvale, Calif.) thermostated at 24° and the absorbance of each well at 340 nm, a measure of the appearance of turbidity due to tubulin polymer formation, is determined every minute for 60 minutes. The absorbance at time 0 for each well is subtracted from each of the subsequent absorbance readings for that well, and then the duplicates are averaged.
In this assay, control reactions with MAP-rich tubulin show an S-shaped absorbance profile characterized by three phases: first, a lag phase during which no change in absorbance occurs; second, a polymerization phase in which absorbance increases; and third, a plateau phase in which absorbance has reached a maximum and little or no further change occurs. Polymerization enhancers such as paclitaxel and docetaxel shorten or eliminate the lag phase, increase the rate of the polymerization phase, and often increase the height of the plateau. […] The compounds of this invention have a taxane-like effect on the polymerization reaction. This has been expressed quantitatively in Table 5 by dividing the mean A340 of each sample at 20 min by the mean A340 of the control at 20 min to give a fold enhancement over control. […] Examples of this invention have factors ranging up to 8.1, with the majority in the 5 to 6-fold range.

[2] = tested on: DLD1 Human Colon Carcinoma; experiment: Human tumor xenograft test, DLD1; format: in vivo; settings: DLD1, 20 mg/kg intravenously on days 1, 5, 9, and 13
Experimental: as §1, §2

[3] = U87-MG, 2.5 mg/kg PO, day 0, vehicle Klucel
[4] = U87-MG, 5 mg/kg PO, day 0, vehicle Klucel
[5] = U87-MG, 10 mg/kg PO, day 0, vehicle Klucel
[6] = U87-MG, 20 mg/kg PO, day 0, vehicle Klucel
[7] = U87-MG, 30 mg/kg PO, day 0, vehicle Klucel
[8] = U87-MG, 20 mg/kg PO, days 1, 5, 9

CNCCCOc1cc(F)c(-c2c(Cl)nc3ncnn3c2N[C@@H](C)C(F)(F)F)c(F)c1 [Example 2, 5-Chloro-6-{2,6-difluoro-4-[3-(methylamino)propoxy]phenyl}-N-[(1S)-2,2,2-trifluoro-1-methylethyl][1,2,4]triazolo[1,5-a]pyrimidin-7-amine]
T/C on day 0 [1, 3]: 1.00
T/C on day 4 [1, 3]: 0.84
T/C on day 8 [1, 3]: 0.82
T/C on day 11 [1, 3]: 0.74*
T/C on day 14 [1, 3]: 0.74*
T/C on day 0 [1, 4]: 1.02
T/C on day 4 [1, 4]: 0.71*
T/C on day 8 [1, 4]: 0.75*
T/C on day 11 [1, 4]: 0.65**
T/C on day 14 [1, 4]: 0.68**
T/C on day 0 [1, 5]: 1.00
T/C on day 4 [1, 5]: 0.60**
T/C on day 8 [1, 5]: 0.51**
T/C on day 11 [1, 5]: 0.40**
T/C on day 14 [1, 5]: 0.41**
T/C on day 0 [1, 6]: 0.97
T/C on day 4 [1, 6]: 0.59**
T/C on day 8 [1, 6]: 0.38**
T/C on day 11 [1, 6]: 0.28**
T/C on day 14 [1, 6]: 0.30**
T/C on day 0 [1, 7]: 0.95
T/C on day 4 [1, 7]: 0.41**
T/C on day 8 [1, 7]: 0.24**
T/C on day 11 [1, 7]: 0.19**
T/C on day 14 [1, 7]: 0.23**
IC50 (COLO 205 cells): 32 nM
A340 Compound/A340 Control (MAP-rich tubulin): 5.8
tumor growth inhibition (activity call) [2]: active

C[C@H](Nc1c(-c2c(F)cc(OCCCN3CCCC3)cc2F)c(Cl)nc2ncnn12)C(F)(F)F [Example 9, 5-Chloro-6-[2,6-difluoro-4-(3-pyrrolidin-1-ylpropoxy)phenyl]-N-[(1S)-2,2,2-trifluoro-1-methylethyl][1,2,4]triazolo[1,5-a]pyrimidin-7-amine]
T/C on day 0 [1, 8]: 1.04
T/C on day 3 [1, 8]: 0.93
T/C on day 7 [1, 8]: 0.70
T/C on day 10 [1, 8]: 0.50**
T/C on day 13 [1, 8]: 0.34**
T/C on day 17 [1, 8]: 0.45**
tumor growth inhibition (activity call) ([1]; U-87 MG, oral dosing, 20 mg/kg): active
IC50 (COLO 205 cells): 44 nM
A340 Compound/A340 Control (MAP-rich tubulin): 5.8

C[C@H](Nc1c(-c2ccc(OCCCN(C)C)cc2F)c(Cl)nc2ncnn12)C(F)(F)F [Example 13, 5-Chloro-6-{4-[3-(dimethylamino)propoxy]-2-fluorophenyl}-N-[(1S)-2,2,2-trifluoro-1-methylethyl][1,2,4]triazolo[1,5-a]pyrimidin-7-amine]
IC50 (COLO 205 cells): 262 nM
A340 Compound/A340 Control (MAP-rich tubulin): 5.4

C[C@H](Nc1c(-c2c(F)cc(NCCN(C)C)cc2F)c(Cl)nc2ncnn12)C(F)(F)F [Example 24, N^1-[4-(5-Chloro-7-{[(1S)-2,2,2-trifluoro-1-methylethyl]amino}[1,2,4]triazolo[1,5-a]pyrimidin-6-yl)-3,5-difluorophenyl]-N^2,N^2-dimethylethane-1,2-diamine]
IC50 (COLO 205 cells): 1730 nM
A340 Compound/A340 Control (MAP-rich tubulin): 1.2

C[C@H](Nc1c(-c2c(F)cc(OCCN(C)C)cc2F)c(Cl)nc2ncnn12)C(F)(F)F [Example 16, 5-Chloro-6-{4-[2-(dimethylamino)ethoxy]-2,6-difluorophenyl}-N-[(1S)-2,2,2-trifluoro-1-methylethyl][1,2,4]triazolo[1,5-a]pyrimidin-7-amine]
IC50 (COLO 205 cells): 581 nM
A340 Compound/A340 Control (MAP-rich tubulin): 2.4

C[C@H](Nc1c(-c2c(F)cc(N(C)CCCN(C)C)cc2F)c(Cl)nc2ncnn12)C(F)(F)F [Example 22, N^1-[4-(5-Chloro-7-{[(1S)-2,2,2-trifluoro-1-methylethyl]amino}[1,2,4]triazolo[1,5-a]pyrimidin-6-yl)-3,5-difluorophenyl]-N′,N^3,N^3-trimethylpropane-1,3-diamine]
IC50 (COLO 205 cells): 1670 nM
A340 Compound/A340 Control (MAP-rich tubulin): 1.2

C[C@H](Nc1c(-c2c(F)cc(SCCCN(C)C)cc2F)c(Cl)nc2ncnn12)C(F)(F)F [Example 18, 5-Chloro-6-(4-{[3-(dimethylamino)propyl]thio}-2,6-difluorophenyl)-N-[(1S)-2,2,2-trifluoro-1-methylethyl][1,2,4]triazolo[1,5-a]pyrimidin-7-amine]
IC50 (COLO 205 cells): 192 nM
A340 Compound/A340 Control (MAP-rich tubulin): 5.8

CNCCOc1cc(F)c(-c2c(Cl)nc3ncnn3c2N[C@@H](C)C(F)(F)F)c(F)c1 [Example 14, 5-Chloro-6-{2,6-difluoro-4-[2-(methylamino)ethoxy]phenyl}-N-[(1S)-2,2,2-trifluoro-1-methylethyl][1,2,4]triazolo[1,5-a]pyrimidin-7-amine]
IC50 (COLO 205 cells): 881 nM
A340 Compound/A340 Control (MAP-rich tubulin): 1.5

C[C@H](Nc1c(-c2c(F)cc(OCCCN3CCC3)cc2F)c(Cl)nc2ncnn12)C(F)(F)F [Example 12, 6-[4-(3-Azetidin-1-ylpropoxy)-2,6-difluorophenyl]-5-chloro-N-[(1S)-2,2,2-trifluoro-1-methylethyl][1,2,4]triazolo[1,5-a]pyrimidin-7-amine]
IC50 (COLO 205 cells): 326 nM
A340 Compound/A340 Control (MAP-rich tubulin): 2.9

From patent publication US7507739B2, “6-[(substituted)phenyl]triazolopyrimidines as anticancer agents” (Wyeth, priority 2003, dated 2009)
